# Assay results from PMC8742467, “Therapeutical interference with the epigenetic landscape of germ cell tumors: a comparative drug study and new mechanistical insights” (Clinical Epigenetics, 2022).
# pEC50: −log10 of the molar value.
# How the values were obtained:
# TCam-2 (SE) = assay: XTT cell viability assay, TCam-2; type: cell-based; conditions: Homo sapiens; after 48 h, XTT, n = 4; read-out: EC50 colour/symbol code, SE TCam-2
# Outline: (§1)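 GCT cells seeded at 5 × 10^3/well, UC lines at 3 × 10^3/well; drug dilution series or solvent added next day. Viability read by XTT, four technical replicates per condition; EC50 calculated from concentration–response data.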
# JAR (CC) = assay: XTT cell viability assay, JAR; type: cell-based; conditions: Homo sapiens, after 48 h, n = 4, read-out: EC50 colour/symbol code, CC JAR
# Outline: as §1
# SE (seminoma) cell lines = assay: XTT cell viability assay, mean per entity SE; type: cell-based; conditions: Homo sapiens, after 48 h
# Protocol: (§2) The […] (XTT) assays were performed as described previously. In summary, for GCT and fibroblast cell lines 5 × 10^3 cells (3 × 10^3 for UC, PCa and RCC cell lines) per 96-well were seeded and different drug concentrations (see Additional file 2: Fig. S2, Additional file 3: Fig. S3) or corresponding solvents were added to the cells the following day. For drug details see Additional file 12: Table S2 C. Each condition was analyzed in four technical replicates and EC50 values were calculated by GraphPad Prism v8.
# [1] = tested on: YST (yolk-sac tumor) cell lines; assay: XTT cell viability assay, mean per entity YST; type: cell-based; conditions: Homo sapiens, after 48 h
# Protocol: as §2
# [2] = tested on: CC (choriocarcinoma) cell lines JAR, JEG-3, BeWo; assay: XTT cell viability assay, CC cell lines; type: cell-based; conditions: Homo sapiens; after 48 h, mean per entity
# Protocol: as §2
# [3] = tested on: renal cell carcinoma (RCC) cell lines; assay: XTT cell viability assay, RCC cell lines; type: cell-based; conditions: Homo sapiens, 48 h, mean of three cell lines
# Protocol: as §2
# GCT cells = assay: Flow cytometry cell cycle (PI), GCT cells; type: cell-based, Human; conditions: EC50, 16 h
# Outline: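 Apoptosis: cells stained with Annexin V-FITC plus 15 µg PI in binding buffer, 15 min dark at room temperature. Cell cycle: cells fixed in ice-cold 70% ethanol, stained with 2 µg/ml PI and 200 µg/ml RNaseA in PBS. At least 5 × 10^4 cells counted by flow cytometry.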
# [4] = tested on: histone modifications in 2102EP cells; assay: Mass spectrometry analysis of histone modifications (Mod Spec); type: cell-based, Human
# Outline: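 2102EP cells were treated for 16 h with EC50 concentrations of Quisinostat, JIB-04, Chaetocin, MZ-1, LP99, PRT4165 or GSK343, with DMSO as solvent control. After trypsin harvest, histones were extracted and analysed by mass spectrometry. Raw data were converted to z-scores.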
# [5] = 2102EP cells, Mod Spec raw data
# [6] = 2102EP, EC50, 16 h, vs solvent control
smiles,measurement,setting,value
Cn1cc(CNCC2CCN(c3ncc(C(=O)NO)cn3)CC2)c2ccccc21 [Quisinostat],pEC50,TCam-2 (SE),> 6.00
same,pEC50,JAR (CC),> 6.00
same,pEC50,SE (seminoma) cell lines,8.02
same,pEC50,[1],8.16
same,pEC50,[2],8.16
same,pEC50,[3],< 7.30
same,cell cycle phase accumulation in GCT cells,GCT cells,accumulation in the G2/M phase
same,"H1.4: K25AC, % of peptide pool",[4]; [5],0.02419%
same,"H1.4: K25ME1, % of peptide pool",[4]; [5],1.754%
same,"H1.4: K25ME2, % of peptide pool",[4]; [5],0.1017%
same,"H1.4: K25ME3, % of peptide pool",[4]; [5],0.01896%
same,"H1.4: K25UN, % of peptide pool",[4]; [5],98.1009%
same,"H2A1: K13AC, % of peptide pool",[4]; [5],0.02445%
same,"H2A1: K13UN, % of peptide pool",[4]; [5],99.9755%
same,"H2A1: K15AC, % of peptide pool",[4]; [5],0.008356%
same,"H2A1: K15UB, % of peptide pool",[4]; [5],0%
same,"H2A1: K15UN, % of peptide pool",[4]; [5],99.9916%
same,"H2A3: K13AC, % of peptide pool",[4]; [5],0.03116%
same,"H2A3: K13UN, % of peptide pool",[4]; [5],99.9688%
same,"H2A3: K15AC, % of peptide pool",[4]; [5],0.09989%
same,"H2A3: K15UB, % of peptide pool",[4]; [5],0%
same,"H2A3: K15UN, % of peptide pool",[4]; [5],99.9001%
same,"H2A: K5AC, % of peptide pool",[4]; [5],30.5025%
same,"H2A: K5UN, % of peptide pool",[4]; [5],69.4975%
same,"H2A: K9AC, % of peptide pool",[4]; [5],4.727%
same,"H2A: K9UN, % of peptide pool",[4]; [5],95.2735%
same,"H2A: K36AC, % of peptide pool",[4]; [5],0.03623%
same,"H2A: K36UN, % of peptide pool",[4]; [5],99.9638%
same,"H3: K9AC, % of peptide pool",[4]; [5],3.623%
same,"H3: K9ME1, % of peptide pool",[4]; [5],30.7914%
same,"H3: K9ME2, % of peptide pool",[4]; [5],27.5315%
same,"H3: K9ME3, % of peptide pool",[4]; [5],2.296%
same,"H3: K9UN, % of peptide pool",[4]; [5],35.7584%
same,"H3: K14AC, % of peptide pool",[4]; [5],58.3927%
same,"H3: K14UN, % of peptide pool",[4]; [5],41.6073%
same,"H3: K18AC, % of peptide pool",[4]; [5],38.2845%
same,"H3: K18ME1, % of peptide pool",[4]; [5],0.1021%
same,"H3: K18UN, % of peptide pool",[4]; [5],61.6134%
same,"H3: K23AC, % of peptide pool",[4]; [5],46.4415%
same,"H3: K23ME1, % of peptide pool",[4]; [5],0.02903%
same,"H3: K23UN, % of peptide pool",[4]; [5],53.5295%
same,"H3: K56AC, % of peptide pool",[4]; [5],0.1713%
same,"H3: K56ME1, % of peptide pool",[4]; [5],1.011%
same,"H3: K56UN, % of peptide pool",[4]; [5],98.8174%
same,"H3: K64AC, % of peptide pool",[4]; [5],0.03095%
same,"H3: K64UN, % of peptide pool",[4]; [5],99.9691%
same,"H3: K79AC, % of peptide pool",[4]; [5],0.6776%
same,"H3: K79ME1, % of peptide pool",[4]; [5],18.2028%
same,"H3: K79ME2, % of peptide pool",[4]; [5],5.702%
same,"H3: K79ME3, % of peptide pool",[4]; [5],13.4482%
same,"H3: K79UN, % of peptide pool",[4]; [5],61.9691%
same,"H3: K122AC, % of peptide pool",[4]; [5],0.1638%
same,"H3: K122UN, % of peptide pool",[4]; [5],99.8362%
same,"H3: Q19ME1, % of peptide pool",[4]; [5],0.00624%
same,"H3: Q19UN, % of peptide pool",[4]; [5],99.9938%
same,"H3: Q55ME1, % of peptide pool",[4]; [5],0.3096%
same,"H3: Q55UN, % of peptide pool",[4]; [5],99.6904%
same,"H3: R42ME2, % of peptide pool",[4]; [5],2.863%
same,"H3: R42UN, % of peptide pool",[4]; [5],97.1374%
same,"H3: R49ME2, % of peptide pool",[4]; [5],6.457%
same,"H3: R49UN, % of peptide pool",[4]; [5],93.5429%
same,"H3R2UN: K4AC, % of peptide pool",[4]; [5],0.2031%
same,"H3R2UN: K4ME1, % of peptide pool",[4]; [5],23.4933%
same,"H3R2UN: K4ME2, % of peptide pool",[4]; [5],0.2912%
same,"H3R2UN: K4ME3, % of peptide pool",[4]; [5],0.05363%
same,"H3R2UN: K4UN, % of peptide pool",[4]; [5],75.9587%
same,"H3R2UN: Q5ME1, % of peptide pool",[4]; [5],0.06645%
same,"H3R2UN: Q5UN, % of peptide pool",[4]; [5],99.9336%
same,"H3.1: K27AC, % of peptide pool",[4]; [5],8.049%
same,"H3.1: K27ME1, % of peptide pool",[4]; [5],45.2407%
same,"H3.1: K27ME2, % of peptide pool",[4]; [5],17.0794%
same,"H3.1: K27ME3, % of peptide pool",[4]; [5],2.551%
same,"H3.1: K27UN, % of peptide pool",[4]; [5],27.08%
same,"H3.1: K36AC, % of peptide pool",[4]; [5],0.2956%
same,"H3.1: K36ME1, % of peptide pool",[4]; [5],12.4481%
same,"H3.1: K36ME2, % of peptide pool",[4]; [5],50.5827%
same,"H3.1: K36ME3, % of peptide pool",[4]; [5],20.2944%
same,"H3.1: K36UN, % of peptide pool",[4]; [5],16.3791%
same,"H3.3: K27AC, % of peptide pool",[4]; [5],13.7879%
same,"H3.3: K27M, % of peptide pool",[4]; [5],0%
same,"H3.3: K27ME1, % of peptide pool",[4]; [5],42.1096%
same,"H3.3: K27ME2, % of peptide pool",[4]; [5],14.1824%
same,"H3.3: K27ME3, % of peptide pool",[4]; [5],5.8099%
same,"H3.3: K27UN, % of peptide pool",[4]; [5],24.1102%
same,"H3.3: K36AC, % of peptide pool",[4]; [5],4.027%
same,"H3.3: K36ME1, % of peptide pool",[4]; [5],9.936%
same,"H3.3: K36ME2, % of peptide pool",[4]; [5],52.9264%
same,"H3.3: K36ME3, % of peptide pool",[4]; [5],21.2958%
same,"H3.3: K36UN, % of peptide pool",[4]; [5],11.8156%
same,"H4: K5AC, % of peptide pool",[4]; [5],13.3396%
same,"H4: K5UN, % of peptide pool",[4]; [5],86.6604%
same,"H4: K8AC, % of peptide pool",[4]; [5],32.6787%
same,"H4: K8UN, % of peptide pool",[4]; [5],67.3213%
same,"H4: K12AC, % of peptide pool","[4]; 2102EP cells, Mod Spec raw data, histone H4 K12 acetylated",21.736 % of peptide pool
same,"H4: K12UN, % of peptide pool","[4]; 2102EP cells, Mod Spec raw data, histone H4 K12 unmodified",78.264 % of peptide pool
same,"H4: K16AC, % of peptide pool","[4]; 2102EP cells, Mod Spec raw data, histone H4 K16 acetylated",69.3546 % of peptide pool
same,"H4: K16UN, % of peptide pool","[4]; 2102EP cells, Mod Spec raw data, histone H4 K16 unmodified",30.6454 % of peptide pool
same,"H4: K20AC, % of peptide pool","[4]; 2102EP cells, Mod Spec raw data, histone H4 K20 acetylated",15.0365 % of peptide pool
same,"H4: K20ME2, % of peptide pool","[4]; 2102EP cells, Mod Spec raw data, histone H4 K20 dimethylated",57.6801 % of peptide pool
same,"H4: K20ME1, % of peptide pool","[4]; 2102EP cells, Mod Spec raw data, histone H4 K20 monomethylated",5.018 % of peptide pool
same,"H4: K20ME3, % of peptide pool","[4]; 2102EP cells, Mod Spec raw data, histone H4 K20 trimethylated",3.192 % of peptide pool
same,"H4: K20UN, % of peptide pool","[4]; 2102EP cells, Mod Spec raw data, histone H4 K20 unmodified",19.0735 % of peptide pool
same,change of histone modifications of the expected mode of action (Mod Spec),[4]; [6],strong accumulation of histone acetylation on histones H3 and H4
same,off-target changes of histone modifications (Mod Spec),[4]; [6],"increase in histone methylation (H3K4me1, H3.3K27me3, H3K56me1, H4K20me1/3)"
